Results on 8 compounds are retold here after PMC7540173 (Chemistry (Weinheim an Der Bergstrasse, Germany), 2020).

The target of experiment [1] is human αvβ3 integrin (Homo sapiens, UniProt P05106+P06756). Nature of the experiment: ELISA-like solid-phase integrin binding assay. On the technique in general: An ELISA detects its analyte on a solid surface through an enzyme-linked reagent.
Experiment [2] has as its target human α5β1 integrin (Homo sapiens, UniProt P05556+P08648). Nature of the experiment: ELISA-like solid-phase integrin binding assay.

Sequence of human α5β1 integrin (P08648 42-995 limits assumed): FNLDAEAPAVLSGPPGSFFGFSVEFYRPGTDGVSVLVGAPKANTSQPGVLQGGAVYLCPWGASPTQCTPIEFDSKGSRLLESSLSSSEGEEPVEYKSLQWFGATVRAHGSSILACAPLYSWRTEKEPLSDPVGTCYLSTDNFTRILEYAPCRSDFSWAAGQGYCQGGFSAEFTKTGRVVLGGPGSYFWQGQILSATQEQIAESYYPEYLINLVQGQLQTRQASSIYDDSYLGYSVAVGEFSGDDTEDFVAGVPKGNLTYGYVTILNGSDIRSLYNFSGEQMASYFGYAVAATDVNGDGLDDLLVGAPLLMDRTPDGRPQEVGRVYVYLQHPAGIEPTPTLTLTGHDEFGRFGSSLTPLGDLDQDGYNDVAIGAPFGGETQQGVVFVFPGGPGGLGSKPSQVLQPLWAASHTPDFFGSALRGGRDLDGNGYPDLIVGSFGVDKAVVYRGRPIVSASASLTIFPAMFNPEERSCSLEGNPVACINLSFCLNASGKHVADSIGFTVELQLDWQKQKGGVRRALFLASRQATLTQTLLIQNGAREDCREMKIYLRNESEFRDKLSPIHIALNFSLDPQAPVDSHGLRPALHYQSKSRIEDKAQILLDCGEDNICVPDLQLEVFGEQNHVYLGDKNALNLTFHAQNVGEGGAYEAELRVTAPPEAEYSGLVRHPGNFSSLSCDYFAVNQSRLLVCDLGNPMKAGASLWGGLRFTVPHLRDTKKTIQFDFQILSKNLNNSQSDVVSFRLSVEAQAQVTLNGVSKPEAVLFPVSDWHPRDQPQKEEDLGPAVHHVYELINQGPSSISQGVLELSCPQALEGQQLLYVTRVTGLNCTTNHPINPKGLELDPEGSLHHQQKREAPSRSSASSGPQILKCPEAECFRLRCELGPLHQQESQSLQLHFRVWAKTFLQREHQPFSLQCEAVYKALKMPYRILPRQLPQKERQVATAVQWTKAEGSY
Sequence of human α5β1 integrin (P05556 21-728 limits assumed): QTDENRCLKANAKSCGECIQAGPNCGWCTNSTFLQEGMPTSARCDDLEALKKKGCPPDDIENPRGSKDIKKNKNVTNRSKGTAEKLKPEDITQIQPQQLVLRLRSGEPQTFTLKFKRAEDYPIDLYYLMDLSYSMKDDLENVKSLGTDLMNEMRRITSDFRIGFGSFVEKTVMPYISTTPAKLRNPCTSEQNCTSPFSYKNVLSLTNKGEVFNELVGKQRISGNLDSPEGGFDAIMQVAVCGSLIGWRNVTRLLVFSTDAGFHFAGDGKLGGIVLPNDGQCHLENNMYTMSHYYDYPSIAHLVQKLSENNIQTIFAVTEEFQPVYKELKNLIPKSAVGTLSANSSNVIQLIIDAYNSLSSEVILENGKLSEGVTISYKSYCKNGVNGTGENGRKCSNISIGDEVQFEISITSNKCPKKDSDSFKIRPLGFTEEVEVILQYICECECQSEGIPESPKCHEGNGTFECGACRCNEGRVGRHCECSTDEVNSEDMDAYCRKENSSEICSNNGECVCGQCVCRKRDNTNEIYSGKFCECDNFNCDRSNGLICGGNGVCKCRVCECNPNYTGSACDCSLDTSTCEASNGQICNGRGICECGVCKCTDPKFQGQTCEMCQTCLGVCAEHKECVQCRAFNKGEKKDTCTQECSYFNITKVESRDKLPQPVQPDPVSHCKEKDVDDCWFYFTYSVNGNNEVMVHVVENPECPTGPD
Sequence of human αvβ3 integrin (P06756 31-992 limits assumed): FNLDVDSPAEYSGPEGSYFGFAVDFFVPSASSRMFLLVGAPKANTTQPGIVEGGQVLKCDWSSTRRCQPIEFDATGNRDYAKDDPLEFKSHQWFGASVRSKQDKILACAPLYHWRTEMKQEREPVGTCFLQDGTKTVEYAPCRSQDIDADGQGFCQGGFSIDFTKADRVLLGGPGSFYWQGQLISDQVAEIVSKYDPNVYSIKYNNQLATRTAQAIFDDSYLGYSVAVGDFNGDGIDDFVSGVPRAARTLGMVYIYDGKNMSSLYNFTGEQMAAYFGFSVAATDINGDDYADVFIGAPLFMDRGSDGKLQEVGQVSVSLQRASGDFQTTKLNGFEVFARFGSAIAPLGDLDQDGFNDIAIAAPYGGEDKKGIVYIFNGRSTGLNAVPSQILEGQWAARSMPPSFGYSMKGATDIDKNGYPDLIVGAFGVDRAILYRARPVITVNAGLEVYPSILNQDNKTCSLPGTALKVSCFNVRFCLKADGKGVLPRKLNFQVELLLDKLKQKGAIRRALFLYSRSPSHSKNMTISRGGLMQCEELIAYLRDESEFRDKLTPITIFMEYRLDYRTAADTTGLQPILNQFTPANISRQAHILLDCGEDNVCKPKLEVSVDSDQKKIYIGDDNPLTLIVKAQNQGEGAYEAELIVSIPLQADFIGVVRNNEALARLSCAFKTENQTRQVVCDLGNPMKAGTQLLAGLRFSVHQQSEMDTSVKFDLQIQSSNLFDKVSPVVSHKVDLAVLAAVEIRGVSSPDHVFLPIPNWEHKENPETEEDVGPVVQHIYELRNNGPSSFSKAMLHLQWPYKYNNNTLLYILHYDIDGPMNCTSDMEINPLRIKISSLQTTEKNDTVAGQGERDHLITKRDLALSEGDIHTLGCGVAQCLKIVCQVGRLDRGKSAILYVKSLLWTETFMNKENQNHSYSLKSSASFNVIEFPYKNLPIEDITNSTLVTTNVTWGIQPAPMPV
Sequence of human αvβ3 integrin (P05106 27-718 limits assumed): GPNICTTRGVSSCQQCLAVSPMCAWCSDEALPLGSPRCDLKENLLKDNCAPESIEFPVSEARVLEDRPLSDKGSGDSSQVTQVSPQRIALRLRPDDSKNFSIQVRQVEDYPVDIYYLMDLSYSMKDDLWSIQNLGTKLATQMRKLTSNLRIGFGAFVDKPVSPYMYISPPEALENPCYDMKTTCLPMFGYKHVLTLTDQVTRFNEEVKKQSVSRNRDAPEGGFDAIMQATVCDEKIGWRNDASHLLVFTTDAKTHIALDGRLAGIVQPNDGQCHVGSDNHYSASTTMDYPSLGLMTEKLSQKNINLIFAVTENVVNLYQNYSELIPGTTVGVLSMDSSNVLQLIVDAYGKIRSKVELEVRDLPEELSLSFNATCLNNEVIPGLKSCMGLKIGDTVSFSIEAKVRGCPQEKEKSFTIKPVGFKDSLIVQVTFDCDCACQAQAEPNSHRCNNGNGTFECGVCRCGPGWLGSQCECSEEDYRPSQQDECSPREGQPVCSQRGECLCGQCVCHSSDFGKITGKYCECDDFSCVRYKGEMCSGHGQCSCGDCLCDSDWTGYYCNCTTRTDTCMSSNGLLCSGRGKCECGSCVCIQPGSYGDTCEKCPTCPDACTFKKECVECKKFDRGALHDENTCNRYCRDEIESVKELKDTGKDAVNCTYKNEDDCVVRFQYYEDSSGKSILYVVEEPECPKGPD

The IC50 is the point on the concentration scale where inhibition reaches its midpoint. Lower therefore signals inhibition by little substance. In turn, `N=C(N)NCCC[C@@H]1NC(=O)CCCCCN2c3ccccc3Sc3cc(ccc32)-c2cccc3c(c[nH]c23)C[C@@H](C(N)=O)NC(=O)[C@H](CC(=O)O)NC(=O)CNC1=O` [12 a, c(RGDW(7‐3Ptz^2))] had an IC50 in experiment [1] of 330 ± 40 nM.
On to `N#CC(C#N)=Cc1ccc2c(c1)Sc1cc3ccc1N2CCCCCC(=O)N[C@@H](CCCNC(=N)N)C(=O)NCC(=O)N[C@@H](CC(=O)O)C(=O)N[C@@H](C(N)=O)Cc1c[nH]c2c-3cccc12` [12 g, c(RGDw(7‐3Ptz^2(CH(CN)2))], for which the IC50 in experiment [1] was 961 ± 50 nM; in experiment [2], above 10000 nM.
On to `CN1C(=O)[C@H](CC(=O)O)NC(=O)CNC(=O)[C@H](CCCNC(=N)N)NC(=O)CN2c3ccccc3Sc3cc(ccc32)-c2cccc3c(c[nH]c23)C[C@H]1C(N)=O` [12 f, c(RGD(NMe)W(7‐3Ptz^1))], for which the half-inhibitory concentration (IC50) in experiment [1] is 4520 ± 530 nM; in experiment [2], above 10000 nM.
The corresponding values for `N=C(N)NCCC[C@@H]1NC(=O)CCCCCN2c3ccccc3Sc3cc(ccc32)-c2cccc3c(c[nH]c23)C[C@H](C(N)=O)NC(=O)[C@H](CC(=O)O)NC(=O)CNC1=O` [12 b, c(RGDw(7‐3Ptz^2))] are 600 ± 110 nM and 5680 ± 1280 nM.
Taken in the same sequence, the figures for `N=C(N)NCCC[C@@H]1NC(=O)CN2c3ccccc3Sc3cc(ccc32)-c2cccc3c(c[nH]c23)C[C@H](C(N)=O)NC(=O)[C@H](CC(=O)O)NC(=O)CNC1=O` [12 d, c(RGDw(7‐3Ptz^1))] were 780 ± 170 nM and above 10000 nM.
Take c(RGDW(7‐3Ptz^1(O))) [12 h]: the “selectivity towards the integrin αVβ3 (over α5β1)” value in experiment [1] (ratio of IC50 α5β1 / αVβ3) is on record as “≈ 110 fold”.
With `N=C(N)NCCC[C@@H]1NC(=O)CN2c3ccccc3Sc3cc(ccc32)-c2cccc3c(c[nH]c23)C[C@@H](C(N)=O)NC(=O)[C@H](CC(=O)O)NC(=O)CNC1=O` [12 c, c(RGDW(7‐3Ptz^1))], the half-maximal inhibitory concentration (IC50) in experiment [1] was 310 ± 80 nM; in experiment [2], 2220 ± 1040 nM.
Regarding `CN1C(=O)[C@H](CC(=O)O)NC(=O)CNC(=O)[C@H](CCCNC(=N)N)NC(=O)CCCCCN2c3ccccc3Sc3cc(ccc32)-c2cccc3c(c[nH]c23)C[C@H]1C(N)=O` [12 e, c(RGD(NMe)W(7‐3Ptz^2))], in experiment [1], the concentration for half-maximal inhibition (IC50) came out at 6550 ± 760 nM. For the same compound, in experiment [1] (N-methyl tryptophan derivatives vs 12 a–c), the “decrease in the affinities compared to their unmethylated analogues” value was 15–20 fold.
